Measurements as given in patent US20110077232A1, “COMPOSITIONS COMPRISING ATORVASTATIN 4-(NITROOXY) BUTYL ESTER AND A HYPOLIPIDEMIC DRUG” (Nicox S.A., priority 2008, published 2011).

Legend:
[1] = test system: female APOE*3Leiden mice; assay: Plasma ALT levels (liver function), Method 1; type: in vivo; details: for ALT: pooled plasma
Experimental: Alanine transaminase (ALT), as measure for liver function, was measured in pooled samples using the spectrophotometric assay of the Boehringer Reflotron system.

[2] = test system: female APOE*3Leiden mice; assay: Total plasma cholesterol, Method 1; type: in vivo; design: decreased plasma cholesterol levels (vs control): concentration or dose not given beside the values; details: for Cholesterol: means ± SD
Experimental: Total plasma cholesterol was determined using kit “Chol R1” is from Roche.

[3] = test system: female APOE*3Leiden mice; assay: Number of lesions in the aortic root, Method 2; type: in vivo; details: for influence on number of lesions as compared to the control group: 12 weeks, result in words; for Lesion number per cross section: t = 12 weeks, NO-atorvastatin 13.0 mg/kg, ezetimibe 0.1 then 0.3 mg/kg, means±SD
Experimental: (§1) Fifty-six female APOE*3Leiden mice (age 11-13 weeks, body weight 20-25 gram) were put on a semi-synthetic Western-type diet for 4 weeks and were subsequently treated with or without NO-atorvastatin (13.0 mg/kg b.w. or 0.0108% w/w), ezetimibe (0.1 mg/kg b.w. or 0.000083% w/w until week 6 and 0.3 mg/kg b.w. or 0.000249% w/w from week 6-12) and a combination of NO-atorvastatin with ezetimibe for 12 weeks. At time point t=0, t=4, t=8 and t=12 blood was collected for the measurement of the indicated lipid and inflammation parameters and at sacrifice serum, heart, thoracic aorta and liver were collected. The number of lesions and the number of undiseased segments in the aortic root were measured.
The number of lesions per cross section is presented as absolute values (means±SD).

[4] = test system: female APOE*3Leiden mice; assay: Undiseased segments in the aortic root, Method 2; type: in vivo; details: 12 weeks; for Undiseased segments (% of total): aortic root, n=12 per group, means±SD
Experimental: as §1
The number of undiseased segments in the aortic root was counted individually (n=12 per group) and calculated as percentage of all quantified segments. Values are percentages (means±SD).

[5] = test system: female APOE*3Leiden mice; assay: Progression of atherosclerosis (overall, lesion area), Method 2; type: in vivo; details: 12 weeks; result in words
Experimental: as §1

[6] = test system: female APOE*3Leiden mice; assay: Plasma triglycerides, Method 1; type: in vivo; details: for Triglycerides: means ± SD
Experimental: (§2) At the end of each treatment period blood was collected for the indicated lipid and inflammation parameters and at sacrifice livers and plasma/serum were collected.
Triglycerides level was determined using kit “Triglycerides GPO-PAP” from Roche.

[7] = test system: female APOE*3Leiden mice; details: t = 8 weeks; means ± SD, n ≧ 9 mice per group
Experimental: as §2
P-Selectin, adhesion molecule as inflammation marker, was determined using commercially available Elisa kit.

[8] = t = 0 (before treatment), n ≧ 9 mice per group
[9] = t = 4 weeks, NO-atorvastatin 4.3 mg/kg, ezetimibe 0.1 mg/kg, fenofibrate 1 mg/kg in diet
[10] = t = 8 weeks, NO-atorvastatin 13 mg/kg, ezetimibe 0.1 mg/kg, fenofibrate 3 mg/kg from week 4
[11] = t = 4 weeks, NO-atorvastatin 4.3 mg/kg, ezetimibe 0.1 mg/kg, fenofibrate 1 mg/kg
[12] = t = 4 weeks, NO-atorvastatin 4.3 mg/kg, fenofibrate 1 mg/kg
[13] = t = 8 weeks, NO-atorvastatin 13 mg/kg, fenofibrate 3 mg/kg from week 4

O=C1[C@H](CC[C@H](O)c2ccc(F)cc2)[C@@H](c2ccc(O)cc2)N1c1ccc(F)cc1 [Ezetimibe, ezetimibe]
ALT [1, 8]: 120 U/L | ALT [1, 9]: 92 U/L | ALT [1, 10]: 81 U/L | decreased plasma cholesterol levels (vs control) ([2]; after 4 weeks of treatment): −25% | decreased plasma cholesterol levels (vs control) ([2]; after 8 weeks of treatment): −35% | Cholesterol [2, 8]: 18.6 ± 2.6 mmol/L | Cholesterol [2, 11]: 16.8 ± 2.4 mmol/L | Cholesterol [2, 10]: 14.9 ± 3.2 mmol/L | influence on number of lesions as compared to the control group [3]: did not influence the number of lesions | Lesion number per cross section [3]: 3.5 ± 1.0 | effect on number of undiseased segments ([4]; result in words): did not affect the number of undiseased segments | Undiseased segments (% of total) [4]: 16.0 ± 14.8 % of total | effect on progression of atherosclerosis [5]: did not affect the progression of atherosclerosis

CC(C)OC(=O)C(C)(C)Oc1ccc(C(=O)c2ccc(Cl)cc2)cc1 [Fenofibrate, fenofibrate]
increased ALT levels as compared to the control mice ([1]; t=4 weeks): +43% | increased ALT levels as compared to the control mice ([1]; t=8 weeks): +60% | decreased plasma cholesterol levels (vs control) ([2]; after 4 weeks of treatment): no effect | decreased plasma cholesterol levels (vs control) ([2]; after 8 weeks of treatment): −28% | Cholesterol [2, 10]: 16.5 ± 2.2 mmol/L | Triglycerides [6, 8]: 2.6 ± 0.7 mmol/L | Triglycerides [6, 12]: 2.2 ± 0.5 mmol/L | Triglycerides [6, 13]: 1.6 ± 0.5 mmol/L | decrease of plasma triglycerides compared to the control group ([6]; t=8 weeks): 41%

CC(C)c1c(C(=O)Nc2ccccc2)c(-c2ccccc2)c(-c2ccc(F)cc2)n1CC[C@@H](O)C[C@@H](O)CC(=O)OCCCCO[N+](=O)[O-] [NO-atorvastatin, atorvastatin 4-(nitrooxy) butyl ester]
ALT [1, 8]: 120 U/L | ALT [1, 9]: 114 U/L | ALT [1, 10]: 91 U/L | decreased plasma cholesterol levels (vs control) ([2]; after 4 weeks of treatment): −21% | decreased plasma cholesterol levels (vs control) ([2]; after 8 weeks of treatment): −34% | Cholesterol [2, 8]: 18.6 ± 2.8 mmol/L | Cholesterol [2, 11]: 17.7 ± 2.5 mmol/L | Cholesterol [2, 10]: 15.2 ± 3.0 mmol/L | Triglycerides [6, 8]: 2.7 ± 0.3 mmol/L | Triglycerides [6, 12]: 3.2 ± 0.7 mmol/L | Triglycerides [6, 13]: 2.7 ± 0.5 mmol/L | P-Selectin [7]: 190 ± 23 ng/mL | influence on number of lesions as compared to the control group [3]: did not influence the number of lesions | Lesion number per cross section [3]: 3.2 ± 0.7 | Undiseased segments (% of total) [4]: 26.4 ± 15.0 % of total | effect on progression of atherosclerosis [5]: reduced atherosclerosis in lesion area
